Laboratory results as given in ChEMBL document CHEMBL3856191, “Structural modifications at the 6-position of thieno[2,3-d]pyrimidines and their effects on potency at FLT3 for treatment of acute myeloid leukemia” (Eur J Med Chem, 2016).
pIC50: −log10 of the molar value.

Target: Tyrosine-protein kinase ABL1 (Homo sapiens, UniProt P00519)
Assay: Inhibition of recombinant human ABL1 expressed in insect cells assessed as remaining activity at 10 uM preincubated for 15 mins followed by poly(Glu:Tyr) substrate addition for 30 mins in presence of [gamma-32P]ATP by […] assay
Details: not given

Tyrosine-protein kinase ABL1, sequence (P00519 whole entry): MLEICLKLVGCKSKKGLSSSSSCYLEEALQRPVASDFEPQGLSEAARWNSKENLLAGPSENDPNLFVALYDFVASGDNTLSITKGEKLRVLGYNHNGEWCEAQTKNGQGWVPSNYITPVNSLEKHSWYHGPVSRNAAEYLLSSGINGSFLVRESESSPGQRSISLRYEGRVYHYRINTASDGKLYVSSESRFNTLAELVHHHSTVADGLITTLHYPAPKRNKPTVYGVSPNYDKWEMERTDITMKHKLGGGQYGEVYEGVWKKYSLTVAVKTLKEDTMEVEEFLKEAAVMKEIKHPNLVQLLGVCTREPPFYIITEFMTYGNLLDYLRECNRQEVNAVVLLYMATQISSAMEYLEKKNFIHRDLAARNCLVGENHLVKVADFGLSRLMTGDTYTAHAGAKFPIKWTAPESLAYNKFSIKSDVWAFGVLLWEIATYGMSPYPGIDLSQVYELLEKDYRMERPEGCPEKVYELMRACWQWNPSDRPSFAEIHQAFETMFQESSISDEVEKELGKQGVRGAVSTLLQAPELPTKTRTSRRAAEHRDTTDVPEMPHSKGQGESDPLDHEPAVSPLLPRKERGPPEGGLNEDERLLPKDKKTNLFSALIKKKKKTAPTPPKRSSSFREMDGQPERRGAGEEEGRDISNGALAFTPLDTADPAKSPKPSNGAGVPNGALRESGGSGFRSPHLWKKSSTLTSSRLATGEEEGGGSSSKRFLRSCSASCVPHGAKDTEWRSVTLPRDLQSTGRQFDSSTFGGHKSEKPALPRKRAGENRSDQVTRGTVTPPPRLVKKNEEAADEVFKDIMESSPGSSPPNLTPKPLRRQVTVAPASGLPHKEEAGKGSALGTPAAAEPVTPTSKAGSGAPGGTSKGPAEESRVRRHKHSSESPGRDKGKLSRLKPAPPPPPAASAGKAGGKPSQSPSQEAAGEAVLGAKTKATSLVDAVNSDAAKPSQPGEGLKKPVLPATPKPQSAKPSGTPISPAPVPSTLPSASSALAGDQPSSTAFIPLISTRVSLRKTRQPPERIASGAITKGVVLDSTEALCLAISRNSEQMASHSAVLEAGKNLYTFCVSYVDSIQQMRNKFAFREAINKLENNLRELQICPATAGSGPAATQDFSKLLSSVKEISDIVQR

SMILES	Activity [%]
CC1=CC(=O)N(Nc2nc(-c3cccs3)nc3sc(-c4ccc(OC5CCNC5)cc4)c(C)c23)C1=O (centres undefined)	26
CC1=CC(=O)N(Nc2nc(-c3cccs3)nc3sc(C)c(C)c23)C1=O	29

Tested on: not listed separately
Assay: cells
Details: Homo sapiens, MV4-11, 48 h
Description: Growth inhibition of human MV4-11 cells expressing FLT3-ITD after 48 hrs by XTT assay

SMILES	GI50 [nM]
CC1=CC(=O)N(Nc2nc(-c3cccs3)nc3sc(-c4ccc(OCCN5CCCC5)cc4)c(C)c23)C1=O	585
COc1ccc(-c2cc3c(NN4C(=O)C=C(C)C4=O)nc(-c4cccs4)nc3s2)cc1	1700
CC1=CC(=O)N(Nc2nc(-c3cccs3)nc3sc(-c4ccc(OCCNCCO)cc4)c(C)c23)C1=O.Cl	1130
CC1=CC(=O)N(Nc2nc(-c3cccs3)nc3sc(-c4ccc(O)cc4)cc23)C1=O	927
CC1=CC(=O)N(Nc2nc(-c3cccs3)nc3sc(-c4ccc(OC5CCNC5)cc4)c(C)c23)C1=O (centres undefined)	366
CC1=CC(=O)N(Nc2nc(-c3cccs3)nc3sc(-c4ccc(OCCNCC(C)C)cc4)c(C)c23)C1=O	278
CC1=CC(=O)N(Nc2nc(-c3cccs3)nc3sc(C)c(C)c23)C1=O	191
CC1=CC(=O)N(Nc2nc(-c3cccs3)nc3sc(C)cc23)C1=O	1060
CC1=CC(=O)N(Nc2nc(-c3cccs3)nc3sc(-c4ccc(OC5CCNCC5)cc4)c(C)c23)C1=O	580

Tested on: not listed separately
Assay: cells
Details: Homo sapiens, HL-60, 48 h
Description: Growth inhibition of human HL60 cells expressing wild type FLT-3 after 48 hrs by XTT assay

SMILES	GI50 [nM]
CC1=CC(=O)N(Nc2nc(-c3cccs3)nc3sc(-c4ccc(OCCN5CCCC5)cc4)c(C)c23)C1=O	1260
COc1ccc(-c2cc3c(NN4C(=O)C=C(C)C4=O)nc(-c4cccs4)nc3s2)cc1	682
CC1=CC(=O)N(Nc2nc(-c3cccs3)nc3sc(-c4ccc(OCCNCCO)cc4)c(C)c23)C1=O.Cl	1340
CC1=CC(=O)N(Nc2nc(-c3cccs3)nc3sc(-c4ccc(O)cc4)cc23)C1=O	336
CC1=CC(=O)N(Nc2nc(-c3cccs3)nc3sc(-c4ccc(OC5CCNC5)cc4)c(C)c23)C1=O (centres undefined)	214
CC1=CC(=O)N(Nc2nc(-c3cccs3)nc3sc(-c4ccc(OCCNCC(C)C)cc4)c(C)c23)C1=O	598
CC1=CC(=O)N(Nc2nc(-c3cccs3)nc3sc(C)c(C)c23)C1=O	127
CC1=CC(=O)N(Nc2nc(-c3cccs3)nc3sc(C)cc23)C1=O	422
CC1=CC(=O)N(Nc2nc(-c3cccs3)nc3sc(-c4ccc(OC5CCNCC5)cc4)c(C)c23)C1=O	377

Tested on: not listed separately
Assay: cells
Details: Homo sapiens, K562, 48 h
Description: Growth inhibition of human K562 cells after 48 hrs by XTT assay

SMILES	GI50 [nM]
CC1=CC(=O)N(Nc2nc(-c3cccs3)nc3sc(-c4ccc(OCCN5CCCC5)cc4)c(C)c23)C1=O	1040
COc1ccc(-c2cc3c(NN4C(=O)C=C(C)C4=O)nc(-c4cccs4)nc3s2)cc1	1090
CC1=CC(=O)N(Nc2nc(-c3cccs3)nc3sc(-c4ccc(OCCNCCO)cc4)c(C)c23)C1=O.Cl	1410
CC1=CC(=O)N(Nc2nc(-c3cccs3)nc3sc(-c4ccc(O)cc4)cc23)C1=O	506
CC1=CC(=O)N(Nc2nc(-c3cccs3)nc3sc(-c4ccc(OC5CCNC5)cc4)c(C)c23)C1=O (centres undefined)	315
CC1=CC(=O)N(Nc2nc(-c3cccs3)nc3sc(-c4ccc(OCCNCC(C)C)cc4)c(C)c23)C1=O	489
CC1=CC(=O)N(Nc2nc(-c3cccs3)nc3sc(C)c(C)c23)C1=O	105
CC1=CC(=O)N(Nc2nc(-c3cccs3)nc3sc(C)cc23)C1=O	1000
CC1=CC(=O)N(Nc2nc(-c3cccs3)nc3sc(-c4ccc(OC5CCNCC5)cc4)c(C)c23)C1=O	425

Tested on: not listed separately
Assay: Metabolic stability in rat liver microsomes assessed as compound remaining at 1 uM after 30 mins in presence of NADPH by HPLC-MS analysis
Format: ADME
Details: liver microsomes, read-out: Stability

SMILES	remaining at 0.5 h, 1 µM [%]
CC1=CC(=O)N(Nc2nc(-c3cccs3)nc3sc(-c4ccc(OCCN5CCCC5)cc4)c(C)c23)C1=O	41.5
CC1=CC(=O)N(Nc2nc(-c3cccs3)nc3sc(-c4ccc(O)cc4)cc23)C1=O	28.2
CC1=CC(=O)N(Nc2nc(-c3cccs3)nc3sc(C)c(C)c23)C1=O	22.7
CC1=CC(=O)N(Nc2nc(-c3cccs3)nc3sc(C)cc23)C1=O	32.6
CC1=CC(=O)N(Nc2nc(-c3cccs3)nc3sc(-c4ccc(OC5CCNCC5)cc4)c(C)c23)C1=O	47.8

Second part, the compound after the results:

remaining at 0.5 h, 1 µM [%]	SMILES
34.2	CC1=CC(=O)N(Nc2nc(-c3cccs3)nc3sc(-c4ccc(OC5CCNC5)cc4)c(C)c23)C1=O (centres undefined)
39.7	CC1=CC(=O)N(Nc2nc(-c3cccs3)nc3sc(-c4ccc(OCCNCC(C)C)cc4)c(C)c23)C1=O

Same assay, conditions: microsomes, 0.5 h, 1 µM

SMILES	Stability
CC1=CC(=O)N(Nc2nc(-c3cccs3)nc3sc(-c4ccc(OCCNCCO)cc4)c(C)c23)C1=O.Cl	Nd(Unstable)

Target: T1, Receptor-type tyrosine-protein kinase FLT3 (Homo sapiens, UniProt P36888)
T1 sequence (P36888 whole entry): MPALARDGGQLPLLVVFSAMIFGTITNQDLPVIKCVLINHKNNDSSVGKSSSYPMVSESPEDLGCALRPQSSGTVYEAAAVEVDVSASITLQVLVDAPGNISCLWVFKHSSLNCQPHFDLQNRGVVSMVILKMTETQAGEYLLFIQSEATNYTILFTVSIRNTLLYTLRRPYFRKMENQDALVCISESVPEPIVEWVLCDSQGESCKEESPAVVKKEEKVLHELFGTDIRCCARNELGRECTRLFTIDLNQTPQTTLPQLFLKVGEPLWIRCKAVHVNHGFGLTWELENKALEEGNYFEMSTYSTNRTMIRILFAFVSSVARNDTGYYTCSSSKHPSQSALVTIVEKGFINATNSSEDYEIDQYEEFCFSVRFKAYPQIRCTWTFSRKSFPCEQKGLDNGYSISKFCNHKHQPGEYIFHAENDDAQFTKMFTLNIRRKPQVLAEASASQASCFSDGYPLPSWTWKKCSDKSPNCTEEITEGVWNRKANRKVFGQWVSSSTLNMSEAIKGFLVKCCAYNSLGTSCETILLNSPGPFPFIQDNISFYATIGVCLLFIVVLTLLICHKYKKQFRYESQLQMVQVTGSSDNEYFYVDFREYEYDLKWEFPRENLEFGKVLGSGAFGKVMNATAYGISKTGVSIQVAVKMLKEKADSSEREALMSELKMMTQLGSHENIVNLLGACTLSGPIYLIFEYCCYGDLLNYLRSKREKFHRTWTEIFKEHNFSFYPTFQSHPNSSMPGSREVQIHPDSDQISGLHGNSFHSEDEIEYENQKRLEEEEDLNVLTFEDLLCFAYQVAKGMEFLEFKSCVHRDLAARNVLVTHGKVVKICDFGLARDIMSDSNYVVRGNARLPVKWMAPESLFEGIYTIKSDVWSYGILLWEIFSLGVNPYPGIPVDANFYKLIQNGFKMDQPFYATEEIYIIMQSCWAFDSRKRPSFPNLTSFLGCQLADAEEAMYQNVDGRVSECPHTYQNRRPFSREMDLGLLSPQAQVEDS
Assay: biochemical
Format: cell-based, Sf21
Details: not given

SMILES	pIC50
CC1=CC(=O)N(Nc2nc(-c3cccs3)nc3sc(-c4ccc(OCCN5CCCC5)cc4)c(C)c23)C1=O	8.19
COc1ccc(-c2cc3c(NN4C(=O)C=C(C)C4=O)nc(-c4cccs4)nc3s2)cc1	7.16
CC1=CC(=O)N(Nc2nc(-c3cccs3)nc3sc(-c4ccc(O)cc4)cc23)C1=O	7.12
CC1=CC(=O)N(Nc2nc(-c3cccs3)nc3sc(C)c(C)c23)C1=O	7.94
CC1=CC(=O)N(Nc2nc(-c3cccs3)nc3sc(C)cc23)C1=O	7.78
CC1=CC(=O)N(Nc2nc(-c3cccs3)nc3sc(-c4ccc(OC5CCNCC5)cc4)c(C)c23)C1=O	7.50

Now those with a higher pIC50, led by results:

pIC50	SMILES
8.27	CC1=CC(=O)N(Nc2nc(-c3cccs3)nc3sc(-c4ccc(OCCNCCO)cc4)c(C)c23)C1=O.Cl
8.42	CC1=CC(=O)N(Nc2nc(-c3cccs3)nc3sc(-c4ccc(OC5CCNC5)cc4)c(C)c23)C1=O (centres undefined)
8.60	CC1=CC(=O)N(Nc2nc(-c3cccs3)nc3sc(-c4ccc(OCCNCC(C)C)cc4)c(C)c23)C1=O

Target: Receptor-type tyrosine-protein kinase FLT3 (Homo sapiens, UniProt P36888, D835Y)
Assay: not given
Details: not given

SMILES	pIC50
CC1=CC(=O)N(Nc2nc(-c3cccs3)nc3sc(-c4ccc(OCCN5CCCC5)cc4)c(C)c23)C1=O	7.78
COc1ccc(-c2cc3c(NN4C(=O)C=C(C)C4=O)nc(-c4cccs4)nc3s2)cc1	7.33
CC1=CC(=O)N(Nc2nc(-c3cccs3)nc3sc(-c4ccc(O)cc4)cc23)C1=O	7.10
CC1=CC(=O)N(Nc2nc(-c3cccs3)nc3sc(C)c(C)c23)C1=O	7.86
CC1=CC(=O)N(Nc2nc(-c3cccs3)nc3sc(C)cc23)C1=O	7.83
CC1=CC(=O)N(Nc2nc(-c3cccs3)nc3sc(-c4ccc(OC5CCNCC5)cc4)c(C)c23)C1=O	7.57

Now from value to compound:

pIC50	SMILES
9.48	CC1=CC(=O)N(Nc2nc(-c3cccs3)nc3sc(-c4ccc(OCCNCCO)cc4)c(C)c23)C1=O.Cl
7.53	CC1=CC(=O)N(Nc2nc(-c3cccs3)nc3sc(-c4ccc(OC5CCNC5)cc4)c(C)c23)C1=O (centres undefined)
7.45	CC1=CC(=O)N(Nc2nc(-c3cccs3)nc3sc(-c4ccc(OCCNCC(C)C)cc4)c(C)c23)C1=O

Target: Angiopoietin-1 receptor (Homo sapiens, UniProt Q02763)
Sequence (Q02763 whole entry): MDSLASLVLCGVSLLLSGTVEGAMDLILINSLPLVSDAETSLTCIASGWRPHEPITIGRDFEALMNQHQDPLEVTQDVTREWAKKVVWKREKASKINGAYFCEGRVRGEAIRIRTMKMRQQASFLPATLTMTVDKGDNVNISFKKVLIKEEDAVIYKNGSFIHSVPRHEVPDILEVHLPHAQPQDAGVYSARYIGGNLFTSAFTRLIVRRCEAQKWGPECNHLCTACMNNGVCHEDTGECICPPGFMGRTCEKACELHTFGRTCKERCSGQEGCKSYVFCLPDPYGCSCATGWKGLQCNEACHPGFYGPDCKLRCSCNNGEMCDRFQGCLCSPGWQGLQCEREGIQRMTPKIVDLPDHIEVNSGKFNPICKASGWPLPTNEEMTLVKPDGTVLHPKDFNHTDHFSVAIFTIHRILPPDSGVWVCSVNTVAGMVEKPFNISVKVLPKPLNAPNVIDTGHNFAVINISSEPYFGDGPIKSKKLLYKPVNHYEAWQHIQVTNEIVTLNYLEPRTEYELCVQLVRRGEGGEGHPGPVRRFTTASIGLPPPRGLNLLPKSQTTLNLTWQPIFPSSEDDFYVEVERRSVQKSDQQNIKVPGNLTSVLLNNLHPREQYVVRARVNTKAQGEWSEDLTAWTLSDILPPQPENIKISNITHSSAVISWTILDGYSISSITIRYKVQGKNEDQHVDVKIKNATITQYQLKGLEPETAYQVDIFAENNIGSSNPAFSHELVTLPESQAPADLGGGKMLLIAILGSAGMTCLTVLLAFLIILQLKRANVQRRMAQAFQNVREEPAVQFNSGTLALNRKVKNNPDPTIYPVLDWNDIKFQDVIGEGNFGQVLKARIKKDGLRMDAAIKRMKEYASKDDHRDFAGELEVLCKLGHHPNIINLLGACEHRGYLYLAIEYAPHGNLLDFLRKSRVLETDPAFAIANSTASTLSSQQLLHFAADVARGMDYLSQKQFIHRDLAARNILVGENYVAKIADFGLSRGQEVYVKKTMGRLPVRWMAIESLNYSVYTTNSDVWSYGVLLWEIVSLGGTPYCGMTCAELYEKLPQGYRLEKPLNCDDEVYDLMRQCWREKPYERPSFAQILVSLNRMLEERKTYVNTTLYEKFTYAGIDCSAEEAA
Assay: Inhibition of human TIE2 assessed as remaining activity at 10 uM preincubated for 15 mins followed by substrate addition measured after 30 mins in presence of [gamma-32P]ATP by […] assay
Details: not given

SMILES	Activity [%]
CC1=CC(=O)N(Nc2nc(-c3cccs3)nc3sc(-c4ccc(OC5CCNC5)cc4)c(C)c23)C1=O (centres undefined)	25
CC1=CC(=O)N(Nc2nc(-c3cccs3)nc3sc(C)c(C)c23)C1=O	32

Tested on: not listed separately
Assay: cells
Details: Homo sapiens, THP-1, 48 h
Description: Growth inhibition of human THP1 cells expressing wild type FLT-3 after 48 hrs by XTT assay

SMILES	GI50 [nM]
CC1=CC(=O)N(Nc2nc(-c3cccs3)nc3sc(-c4ccc(OCCN5CCCC5)cc4)c(C)c23)C1=O	636
COc1ccc(-c2cc3c(NN4C(=O)C=C(C)C4=O)nc(-c4cccs4)nc3s2)cc1	1270
CC1=CC(=O)N(Nc2nc(-c3cccs3)nc3sc(-c4ccc(OCCNCCO)cc4)c(C)c23)C1=O.Cl	843
CC1=CC(=O)N(Nc2nc(-c3cccs3)nc3sc(-c4ccc(O)cc4)cc23)C1=O	765
CC1=CC(=O)N(Nc2nc(-c3cccs3)nc3sc(-c4ccc(OC5CCNC5)cc4)c(C)c23)C1=O (centres undefined)	227
CC1=CC(=O)N(Nc2nc(-c3cccs3)nc3sc(-c4ccc(OCCNCC(C)C)cc4)c(C)c23)C1=O	449
CC1=CC(=O)N(Nc2nc(-c3cccs3)nc3sc(C)c(C)c23)C1=O	222
CC1=CC(=O)N(Nc2nc(-c3cccs3)nc3sc(C)cc23)C1=O	1240
CC1=CC(=O)N(Nc2nc(-c3cccs3)nc3sc(-c4ccc(OC5CCNCC5)cc4)c(C)c23)C1=O	460

Tested on: not listed separately
Assay: Metabolic stability in human liver microsomes assessed as compound remaining at 1 uM after 30 mins in presence of NADPH by HPLC-MS analysis
Format: ADME
Details: read-out: Stability

SMILES	remaining at 0.5 h, 1 µM [%]
CC1=CC(=O)N(Nc2nc(-c3cccs3)nc3sc(-c4ccc(OCCN5CCCC5)cc4)c(C)c23)C1=O	72.7
CC1=CC(=O)N(Nc2nc(-c3cccs3)nc3sc(-c4ccc(O)cc4)cc23)C1=O	74.1
CC1=CC(=O)N(Nc2nc(-c3cccs3)nc3sc(C)c(C)c23)C1=O	32.4
CC1=CC(=O)N(Nc2nc(-c3cccs3)nc3sc(C)cc23)C1=O	58.8
CC1=CC(=O)N(Nc2nc(-c3cccs3)nc3sc(-c4ccc(OC5CCNCC5)cc4)c(C)c23)C1=O	52.4

Continued, values first:

remaining at 0.5 h, 1 µM [%]	SMILES
91.3	CC1=CC(=O)N(Nc2nc(-c3cccs3)nc3sc(-c4ccc(OCCNCCO)cc4)c(C)c23)C1=O.Cl
50.8	CC1=CC(=O)N(Nc2nc(-c3cccs3)nc3sc(-c4ccc(OC5CCNC5)cc4)c(C)c23)C1=O (centres undefined)
66.2	CC1=CC(=O)N(Nc2nc(-c3cccs3)nc3sc(-c4ccc(OCCNCC(C)C)cc4)c(C)c23)C1=O
